One assay deals with iPSC cardiomyocytes. Briefly: Inotropic compound test on iPSC cardiomyocytes, xCELLigence RTCA CardioECR (Example V). In kind it is cell-based. The note with it: 30 minutes post compound addition; for beating rate: FIG. 6B; for beating amplitude (positive inotropic effect): FIG. 6A. Here is the method:
The functional maturation of iPSC cardiomyocytes from Example III was tested using inotropic compounds. Results are shown in FIG. 6A-B. In particular, iPSC cardiomyocytes were seeded in the wells of the CardioECR Plate (E-Plate CardioECR 48) for approximately 7 days until they formed a synchronous, stable beating monolayer. The cells were then electrically paced at 1 Hz, 1.5 Hz and 2 Hz for 1 week respectively (week 1: 1 Hz pacing; week 2: 1.5 Hz pacing; week 3: 2 Hz pacing). After pausing the 2 Hz pacing, cell media was replaced with 90 μL of fresh pre-warmed media the night before compound addition. The cells were then continuously paced for additional 8 hours at 2 Hz. The electrical pacing was terminated 5 hours prior to compound addition to ensure that cells would generate a stable beating rate and beating amplitude for treatment. The baseline beating activity was recorded for 20 seconds every 5 minutes up to 30 minutes immediately prior to compound addition. 10 μL of 10× compound solution was then added to the wells of CardioECR plate using a multichannel pipette. The cell response to the compound was recorded for 20 seconds every 2 minutes immediately after compound exposure using CardioECR system. The cell beating activity, including beating rate and beating amplitude, was evaluated at 30 minutes post compound addition.

Assay [1] deals with iPSC-derived cardiomyocytes. Briefly: Inotropic compound screening on functionally matured iPSC-derived cardiomyocytes, xCELLigence RTCA CardioECR (Example VI, FIG. 7, FIG. 8). In kind it is cell-based. The note with it: for beating rate: FIG. 7B. The procedure: Cell monolayer preparation. The iPSC-derived cardiomyocytes were seeded at the optimal seeding density in the wells of E-plate CardioECR 48, which were pre-coated with substrate. The attachment, growth and beating activity of the cells were recorded after cell seeding in real-time using xCELLigence RTCA CardioECR station, which was placed in a 37° C. tissue culture incubator. Medium change was performed every other day.
Induction of functionally mature iPSC-derived cardiomyocytes. The electrical pacing was initiated and applied to the cell monolayer after a stable and robust beating activity of iPSC-derived cardiomyocytes is observed using xCELLigence RTCA cardioECR system. The iPSC-derived cardiomyocytes were then electrically paced at 1 Hz, 1.5 Hz and 2 Hz for 1 week respectively using xCELLigence RTCA CardioECR system. The pulse intensity and pulse duration was optimized before each pacing frequency and continuously applied to the cells. The cells were confirmed to beat at the same frequency as the pacing frequency under the pacing condition. Medium change was performed every day during chronic pacing procedure.
Inotropic compound screening. After completion of functional maturation of cardiomyocytes over the course of ramping up pacing process for 3 weeks, the inotropic compound screening was conducted. The old media was replaced with 90 μL of fresh pre-warmed media the night before compound addition. The cells will were continuously paced for an additional 12 hours at 2 Hz using the CardioECR system. The electrical pacing was terminated 6 hours prior to compound application to ensure that cells generated stable beating rate and beating amplitude for treatment. The cell beating activity is monitored and recorded in real-time on the CardioECR system.
The effective concentration ranges for the test substances were determined. The compound solution is prepared as follows. The compounds are dissolved in the appropriate solvent. If DMSO is used as the solvent, dissolve the compound in a high stock concentration if possible (ideally more than 1000-fold of the highest test concentration) and store at −20° C. Serial dilutions of compounds are prepared 1000× concentrated in appropriate solvent (DMSO or H2O). Diluted compounds are transferred to the wells of a V-bottom microtiter plate for further dilution in culture medium (10× concentrated).
The baseline of beating activity is recorded for 20 seconds every 5 minutes up to 30 minutes immediately prior to compound addition on the CardioECR system. 10 μL of 10× compound solution is added to the wells of CardioECR plate using multichannel pipette. The cell response to the compound is recorded for 20 seconds every 2 minutes immediately after compound exposure using CardioECR system. The cell beating activity, including beating rate and beating amplitude, is evaluated at 30 minutes post compound addition.

The test system of a further assay is immature cardiomyocytes. The note with it: T3 treatment of immature cardiomyocytes; cited from earlier work.
Setting [2] is: spontaneous beating cardiomyocytes.
[3] abbreviates: FIG. 8 panel, functional matured iCell cardiomyocytes after pacing, representative concentrations.

`CC(C)NCC(O)c1ccc(O)c(O)c1` (stereo not shown) [isoproterenol]: the beating rate result is reported as “increase” in the assay with iPSC cardiomyocytes (chronically paced cardiomyocytes (1, 1.5, 2 Hz, 1 week each)) and “increase” in the assay on iPSC cardiomyocytes (setting [2]). The “beating amplitude (positive inotropic effect)” value in the assay with iPSC cardiomyocytes (chronically paced cardiomyocytes) is reported as “increase”; with iPSC cardiomyocytes (setting [2]), “only observed in paced cells”. The chronotropic effect entry in assay [1] (setting [3]) is recorded as “positive chronotropic effect”.
`COC(=O)C1=C(C)NC(C)=C([N+](=O)[O-])C1c1ccccc1C(F)(F)F` (stereo not shown) [bayK]: in assay [1] (setting [3]), the inotropic effect entry was “positive inotropic effect”.
`N[C@@H](Cc1cc(I)c(Oc2ccc(O)c(I)c2)c(I)c1)C(=O)O` [T3, Tri-iodo-L-thryonine]: in the assay on immature cardiomyocytes, the calcium handling properties result is reported as “enhanced”, the cardiomyocyte size entry is on record as “increased”, the contractile force generation result was “increased” and the “maximal mitochondrial respiration capacity” value is on record as “increased”. Further, in the assay on immature cardiomyocytes, the proliferation result is “decreased” and the sarcomere length entry is “increased”.
Regarding `Cc1[nH]c(=O)c(C#N)cc1-c1ccncc1` [milrinone], the beating rate result in assay [1] (chronically paced cardiomyocytes, 30 minutes post compound addition) is given as “slightly increased”; in assay [1] (spontaneous beating cardiomyocytes, 30 minutes post compound addition), “slightly increased”. Moreover, the beating amplitude result in assay [1] (electrically paced cardiomyocytes, 30 minutes post compound addition, FIG. 7A) was “significantly increased”.
As for `C[C@H]1O[C@@H](O[C@H]2[C@@H](O)C[C@H](O[C@H]3[C@@H](O)C[C@H](O[C@H]4CC[C@@]5(C)[C@H](CC[C@@H]6[C@@H]5C[C@@H](O)[C@]5(C)[C@@H](C7=CC(=O)OC7)CC[C@]65O)C4)O[C@@H]3C)O[C@@H]2C)C[C@H](O)[C@@H]1O` [digoxin], in assay [1] (setting [3]), the inotropic effect entry is on record as “positive inotropic effect”.

(Values after US11746328B2, “Methods and systems for functional maturation of iPSC and ESC derived cardiomyocytes” (Agilent Technologies, Inc., priority 2017, dated 2023).)
